For experiment [1], the target named is T1, E. feacium DltA (Enterococcus faecium, UniProt Q3XZT7).
T1 sequence (Q3XZT7 1-504): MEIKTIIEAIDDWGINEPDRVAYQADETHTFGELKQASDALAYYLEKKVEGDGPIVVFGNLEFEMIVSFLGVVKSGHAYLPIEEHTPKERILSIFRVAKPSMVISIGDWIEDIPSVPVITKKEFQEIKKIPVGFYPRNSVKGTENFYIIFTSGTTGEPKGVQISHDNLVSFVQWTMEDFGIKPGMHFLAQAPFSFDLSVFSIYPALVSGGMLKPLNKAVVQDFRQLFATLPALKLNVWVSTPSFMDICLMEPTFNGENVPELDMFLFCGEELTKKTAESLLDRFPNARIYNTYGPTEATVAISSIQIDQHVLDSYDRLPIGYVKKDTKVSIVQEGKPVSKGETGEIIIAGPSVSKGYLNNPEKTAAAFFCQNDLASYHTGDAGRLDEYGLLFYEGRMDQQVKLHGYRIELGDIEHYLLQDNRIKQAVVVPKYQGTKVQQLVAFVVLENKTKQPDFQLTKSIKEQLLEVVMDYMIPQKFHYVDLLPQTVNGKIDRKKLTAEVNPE
Description: in vitro DltA activity assay (luminescence, IC50 determination). It is filed as biochemical. How it is done: (§1) The effect of the compounds of the invention on DltA enzymes has been based on the measure of their inhibition of DltA activity in vitro. To this end, recombinant proteins DltA were expressed and purified after cloning of the genes of S. aureus, E. faecalis, E. faecium and S. agalactiae as described thereafter. The capacity of the compounds of the invention to inhibit DltA enzymatic activity was assessed using the DltA assays as described below: • The dltA gene was amplified from chromosomal DNA of S. aureus, E. faecalis, E. faecium and S. agalactiae and introduced into E. coli BL21 (Invitrogen, Carlsbad, CA) following manufacturer's instruction. Bacteria were grown at 37°C under aerobic conditions and isopropyl-beta-D-thiogalactopyranoside (IPTG) was added to 0.5-1 mM when OD600 of the bacterial culture had reached 0.5. After a further incubation for 3 hours, cells were harvested by centrifugation. Purification of the recombinant DltA protein was performed by affinity chromatography on nickel-nitrilotriacetic acid (Ni-NTA) column following manufacturer's instructions (Qiagen). Fractions containing recombinant DltA protein were adjusted to 50% glycerol and stored at -20°C until use.
(§2) The binding potency of the inhibitors against DltA enzyme was assessed by IC50 determination in an in vitro DltA activity assay. The assay buffer "AB" contained 50 mM Hepes pH8.0, 10mM MgCl2, 50mM KCI, 0.012% Triton-X100, 10mM DTT and 100nM Myelin-basic protein. The following components were added in a white polystyrene Costar plate up to a final volume of 30µL: 3µL DMSO, or inhibitor dissolved in DMSO and 27µL DltA enzyme in AB. After 30min of preincubation at room temperature, 30µL of Substrates mix in AB were added in each well to a final volume of 60µL. This reaction mixture was then composed of DltA (produced in house from S. aureus, E. faecalis, E. faecium and S. agalactiae), 0.5mM D-Alanine (Sigma), 0.5-5µM ATP (Sigma) and 0.05 u/ml inorganic pyrophosphatase (Sigma) in assay buffer. After typically 1-2hours of incubation at room temperature (conversion rate around 30%), 30µL of the revelation mix were added to a final volume of 90µL, including the following constituents at the respective final concentrations: 10000 u/ml luciferase (Sigma), 30µM D-luciferin (Sigma), 100µM N-acetylcysteamine (Aldrich). Luminescence intensity was immediately measured on a Fluostar Optima (BMG) (excitation 360nm, emission 520nm) and converted into inhibition percentages.
(§3) For compounds interfering with the luminescent signal (quenching), the same experiment without DltA enzyme was performed to allow quenching determination and correction.

Experiment [2] addresses T2, S. aureus DltA (Staphylococcus aureus, UniProt Q2FZW6).
T2 construct: made in house; host or cells: E. coli BL21
T2 sequence (Q2FZW6 1-485): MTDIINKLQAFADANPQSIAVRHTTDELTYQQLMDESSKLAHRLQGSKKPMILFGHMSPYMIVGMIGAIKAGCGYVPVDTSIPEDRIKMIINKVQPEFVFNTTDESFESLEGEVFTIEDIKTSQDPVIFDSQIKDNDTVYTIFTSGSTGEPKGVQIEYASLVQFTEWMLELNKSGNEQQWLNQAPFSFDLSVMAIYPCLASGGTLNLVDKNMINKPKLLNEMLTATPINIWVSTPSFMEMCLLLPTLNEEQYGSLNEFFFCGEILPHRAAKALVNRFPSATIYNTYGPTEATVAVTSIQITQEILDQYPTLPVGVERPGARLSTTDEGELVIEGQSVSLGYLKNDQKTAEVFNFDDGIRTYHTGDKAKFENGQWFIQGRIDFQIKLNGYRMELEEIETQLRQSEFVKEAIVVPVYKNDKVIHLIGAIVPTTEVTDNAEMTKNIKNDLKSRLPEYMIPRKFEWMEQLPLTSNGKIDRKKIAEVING
Described as above. It is filed as biochemical. How it is done:
as §1, §2, §3

In experiment [3] the target is T3, S. Agalactiae DltA (Streptococcus agalactiae serotype III, UniProt Q8VM67).
T3 sequence (Q8VM67 1-511): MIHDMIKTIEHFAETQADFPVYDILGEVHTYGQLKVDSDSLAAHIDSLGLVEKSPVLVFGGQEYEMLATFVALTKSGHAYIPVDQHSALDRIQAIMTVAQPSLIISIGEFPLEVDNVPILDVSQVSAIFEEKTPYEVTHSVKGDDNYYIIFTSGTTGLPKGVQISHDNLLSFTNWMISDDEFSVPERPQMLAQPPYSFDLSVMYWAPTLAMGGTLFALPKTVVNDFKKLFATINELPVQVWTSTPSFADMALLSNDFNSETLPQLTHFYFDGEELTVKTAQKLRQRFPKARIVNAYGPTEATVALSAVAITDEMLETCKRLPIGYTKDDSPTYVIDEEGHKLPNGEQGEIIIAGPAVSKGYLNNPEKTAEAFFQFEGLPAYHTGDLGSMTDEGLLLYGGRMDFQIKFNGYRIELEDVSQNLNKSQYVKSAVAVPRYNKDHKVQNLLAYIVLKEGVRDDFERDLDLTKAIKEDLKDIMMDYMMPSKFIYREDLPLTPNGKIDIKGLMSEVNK
Description: biochemical. The method, then: as §1, with “To” for “The effect of the compounds of the invention on DltA enzymes has been based on the measure of their inhibition of DltA activity in vitro. To”
as §2, §3

Experiment [4] deals with T4, E. feacalis DltA (Enterococcus faecalis, UniProt Q830N0).
T4 sequence (Q830N0 1-506): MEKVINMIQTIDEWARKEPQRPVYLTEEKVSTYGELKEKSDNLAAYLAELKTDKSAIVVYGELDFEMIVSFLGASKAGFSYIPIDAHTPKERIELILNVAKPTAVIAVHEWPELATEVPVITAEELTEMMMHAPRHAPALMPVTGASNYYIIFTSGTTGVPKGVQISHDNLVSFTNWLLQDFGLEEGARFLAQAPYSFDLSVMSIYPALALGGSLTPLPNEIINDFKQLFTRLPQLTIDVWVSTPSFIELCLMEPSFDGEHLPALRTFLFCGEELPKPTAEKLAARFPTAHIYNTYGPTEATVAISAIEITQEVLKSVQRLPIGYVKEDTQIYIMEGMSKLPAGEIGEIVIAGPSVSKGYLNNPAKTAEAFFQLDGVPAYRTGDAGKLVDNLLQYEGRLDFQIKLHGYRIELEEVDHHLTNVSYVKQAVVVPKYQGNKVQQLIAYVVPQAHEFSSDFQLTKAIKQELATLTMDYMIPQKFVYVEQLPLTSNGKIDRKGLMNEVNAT
Description: biochemical. How it is done:
as §1, with “To” for “The effect of the compounds of the invention on DltA enzymes has been based on the measure of their inhibition of DltA activity in vitro. To”
as §2, §3

The mark [5] stands for this setting: recombinant DltA, 30min preincubation at room temperature, 0.5mM D-Alanine, 0.5-5µM ATP, read-out: E. feacium DltA IC50.

By IC50 is commonly meant the concentration needed to halve the response being measured.

Structures can show the parent of a compound that is named as a salt. Where two headings read alike, the source gives them in different places.

Regarding `O=c1[nH]cnc2c(-c3ccc4c(c3)ncn4C3CCCCC3)sc(C3=CCNCC3)c12` [Example 37, 7-(1-cyclohexyl-1H-benzoimidazol-5-yl)-5-(1,2,3,6-tetrahydro-pyridin-4-yl)-3H-thieno[3,4-d]pyrimidin-4-one hydrochloride], the IC50 in experiment [1] (setting [5]) is 42 nM; in experiment [2], 68 nM; in experiment [3], 660 nM; in experiment [4], 25 nM.

With `O=c1[nH]cnc2c(-c3ccc4c(c3)ncn4C3CCCCC3)cn(C3CCOCC3)c12` [Example 81, 7-(1-Cyclohexyl-1H-benzimidazol-5-yl)-5-(tetrahydro-pyran-4-yl)-3,5-dihydro-pyrrolo[3,2-d]pyrimidin-4-one], the IC50 in experiment [1] (setting [5]) was 300 nM; in experiment [2] it was 76 nM; in experiment [3], 2500 nM; in experiment [4] it was 170 nM.

As to `O=c1[nH]cnn2c(-c3ccc4c(c3)ncn4C3CCCCC3)cc(N3CC[C@H](CO)C3)c12` [Example 63, 7-(1-Cyclohexyl-1H-benzoimidazol-5-yl)-5-((S)-3-hydroxymethyl-pyrrolidin-1-yl)-3H-pyrrolo[2,1-f][1,2,4]triazin-4-one], the IC50 came to 1100 nM in experiment [1] (setting [5]), 460 nM in experiment [2], 25000 nM in experiment [3] and 350 nM in experiment [4].

`O=c1[nH]cnc2c(-c3ccc4c(c3)ncn4C3CCCCC3)cn(C3CCNCC3)c12` [Example 73, 7-(1-Cyclohexyl-1H-benzimidazol-5-yl)-5-piperidin-4-yl-3,5-dihydro-pyrrolo[3,2-d]pyrimidin-4-one]: the IC50 came out at 280 nM in experiment [1] (setting [5]), 72 nM in experiment [2], 1000 nM in experiment [3] and 61 nM in experiment [4].

With `O=c1[nH]cnc2c(-c3ccc4c(c3)ncn4C3CCCCC3)cn(C3CCC(O)C3)c12` (racemic) [Example 71A, 7-(1-Cyclohexyl-1H-benzimidazol-5-yl)-5-(3-hydroxy-cyclopentyl)-3,5-dihydro-pyrrolo[3,2-d]pyrimidin-4-one], the IC50 was found to be 890 nM in experiment [1] (setting [5]), 360 nM in experiment [2], 2700 nM in experiment [3] and 360 nM in experiment [4].

As for `CN(C)CCCn1cc(-c2ccc3c(c2)ncn3C2CCCCC2)c2nc[nH]c(=O)c21` [Example 80, 7-(1-Cyclohexyl-1H-benzimidazol-5-yl)-5-(3-dimethylamino-propyl)-3,5-dihydro-pyrrolo[3,2-d]pyrimidin-4-one], the IC50 in experiment [1] (setting [5]) came out at 620 nM; in experiment [2], 270 nM; in experiment [3] it was 1500 nM; in experiment [4] it was 55 nM.

As for `O=c1[nH]cnc2c(-c3ccc4c(c3)ncn4C3CCCCC3)sc(N3CCC(CCO)C3)c12` (stereo not shown) [Example 11, 7-(1-Cyclohexyl-1H-benzoimidazol-5-yl)-5-[3-(2-hydroxy-ethyl)-pyrrolidin-1-yl]-3H-thieno[3,4-d]pyrimidin-4-one], the IC50 in experiment [1] (setting [5]) was 190 nM; in experiment [2] it was 140 nM; in experiment [3] it was 5400 nM; in experiment [4], 120 nM.

Take `O=c1[nH]cnc2c1c(CCCO)cn2-c1ccc2c(c1)ncn2C1CCCCC1` [Example 51, 7-(1-Cyclohexyl-1H-benzoimidazol-5-yl)-5-(3-hydroxy-propyl)-3,7-dihydro-pyrrolo[2,3-d]pyrimidin-4-one]: the IC50 in experiment [1] (setting [5]) was 1200 nM; in experiment [2], 1100 nM; in experiment [3] it was 4500 nM; in experiment [4], 330 nM.

As for `O=c1[nH]cnc2c(-c3ccc4c(c3)ncn4C3CCCCC3)cn(CCCO)c12` [Example 67, 7-(1-Cyclohexyl-1H-benzimidazol-5-yl)-5-(3-hydroxy-propyl)-3,5-dihydro-pyrrolo[3,2-d]pyrimidin-4-one], the IC50 turned out to be 930 nM in experiment [1] (setting [5]), 150 nM in experiment [2], 3800 nM in experiment [3] and 180 nM in experiment [4].

With `CN1CC=C(c2sc(-c3ccc4c(c3)ncn4C3CCCCC3)c3nc[nH]c(=O)c23)CC1` [Example 38, hydrochloride], the IC50 in experiment [1] came out at 130 nM; in experiment [2] it was 130 nM; in experiment [3] it was 910 nM; in experiment [4], 42 nM.

Values taken from patent publication EP2913333A1 (priority 2014, dated 2015).
